Test results: ChEMBL document CHEMBL2086309, “Discovery of liver selective non-steroidal glucocorticoid receptor antagonist as novel antidiabetic agents” (Bioorg Med Chem Lett, 2012)
pIC50: −log10 of the molar value.

What was measured:
Glucocorticoid receptor [1] = target: T1, Glucocorticoid receptor (Homo sapiens, UniProt P04150); assay: Displacement of [3H]dexamethasone from human glucocorticoid receptor expressed in baculovirus infected Sf9 cells after overnight incubation by scintillation counting
T1 sequence (P04150 whole entry): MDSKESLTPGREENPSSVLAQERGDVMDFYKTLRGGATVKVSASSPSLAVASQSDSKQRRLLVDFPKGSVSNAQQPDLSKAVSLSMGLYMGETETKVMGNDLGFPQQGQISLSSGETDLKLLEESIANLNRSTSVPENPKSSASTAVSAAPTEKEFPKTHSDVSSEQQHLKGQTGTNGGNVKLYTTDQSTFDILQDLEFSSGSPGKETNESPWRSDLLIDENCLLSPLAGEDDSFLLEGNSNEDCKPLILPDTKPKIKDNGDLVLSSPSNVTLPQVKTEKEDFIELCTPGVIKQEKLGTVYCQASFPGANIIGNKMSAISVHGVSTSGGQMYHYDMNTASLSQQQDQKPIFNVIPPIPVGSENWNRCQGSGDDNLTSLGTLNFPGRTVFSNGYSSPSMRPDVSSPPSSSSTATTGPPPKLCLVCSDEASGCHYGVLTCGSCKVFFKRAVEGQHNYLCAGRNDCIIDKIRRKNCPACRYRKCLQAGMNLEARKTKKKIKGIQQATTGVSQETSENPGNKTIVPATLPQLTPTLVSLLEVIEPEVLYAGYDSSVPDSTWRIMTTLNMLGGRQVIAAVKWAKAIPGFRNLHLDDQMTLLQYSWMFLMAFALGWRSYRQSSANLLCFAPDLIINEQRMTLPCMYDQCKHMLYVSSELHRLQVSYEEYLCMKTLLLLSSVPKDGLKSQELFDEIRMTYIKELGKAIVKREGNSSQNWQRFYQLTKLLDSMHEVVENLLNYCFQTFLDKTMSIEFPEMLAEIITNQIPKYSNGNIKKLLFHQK

Glucocorticoid receptor [2] = target: T1, Glucocorticoid receptor; assay: Antagonist activity at human glucocorticoid receptor expressed in GRAF cells assessed as inhibition of dexamethasone-induced alkaline phosphatase expression after 48 hrs by reporter gene assay; format: functional, cell-based
Glucocorticoid receptor [3] = target: T2, Glucocorticoid receptor (Rattus norvegicus, UniProt P06536); assay: Antagonist activity at glucocorticoid receptor in rat hepatocytes assessed as inhibition of dexamethasone-induced […] expression incubated for 30 mins prior to dexamethasone-induction measured after 4 hrs by reporter gene assay; format: functional, cell-based, Hepatocyte
T2 sequence (P06536 whole entry): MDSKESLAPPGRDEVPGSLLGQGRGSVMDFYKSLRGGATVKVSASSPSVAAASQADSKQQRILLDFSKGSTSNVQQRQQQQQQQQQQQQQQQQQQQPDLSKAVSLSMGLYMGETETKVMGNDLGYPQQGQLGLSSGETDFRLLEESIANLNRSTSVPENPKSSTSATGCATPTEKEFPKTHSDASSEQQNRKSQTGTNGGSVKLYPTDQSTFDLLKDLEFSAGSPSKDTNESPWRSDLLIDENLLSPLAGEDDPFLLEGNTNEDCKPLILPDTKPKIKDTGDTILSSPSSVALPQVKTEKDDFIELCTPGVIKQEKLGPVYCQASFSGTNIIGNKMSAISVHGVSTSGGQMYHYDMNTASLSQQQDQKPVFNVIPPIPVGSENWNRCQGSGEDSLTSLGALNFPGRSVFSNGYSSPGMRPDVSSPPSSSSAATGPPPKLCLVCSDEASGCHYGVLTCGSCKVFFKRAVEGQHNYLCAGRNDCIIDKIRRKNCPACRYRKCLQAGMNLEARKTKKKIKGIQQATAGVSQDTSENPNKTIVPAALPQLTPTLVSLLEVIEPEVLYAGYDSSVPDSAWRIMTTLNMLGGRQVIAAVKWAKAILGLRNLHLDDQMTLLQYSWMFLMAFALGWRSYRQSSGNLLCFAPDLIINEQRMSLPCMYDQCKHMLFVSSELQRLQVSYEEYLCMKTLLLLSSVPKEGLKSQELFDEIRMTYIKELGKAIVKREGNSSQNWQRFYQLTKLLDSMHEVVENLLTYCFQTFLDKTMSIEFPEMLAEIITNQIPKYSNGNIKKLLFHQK

Row | pIC50 (Glucocorticoid receptor [1]) | pIC50 (Glucocorticoid receptor [2]) | pIC50 (Glucocorticoid receptor [3]) | Structure (SMILES)
1 | 6.53 | 6.22 | 5.48 | O=C(O)Cc1cc(Br)c(N(Cc2ccc(Oc3ccccc3C(F)(F)F)cc2)Cc2cc(F)cc(F)c2)c(Br)c1
2 | 6.06 | 5.85 | < 5.00 | O=C(O)Cc1cc(Br)c(N(Cc2ccc(Oc3ccc(Br)cc3Br)cc2)Cc2cc(F)cc(F)c2)c(Br)c1
3 | 6.10 | 5.93 | < 5.00 | O=C(O)Cc1cc(Br)c(N(Cc2ccc(Oc3ccccc3Br)cc2)Cc2cc(F)cc(F)c2)c(Br)c1
4 | 5.78 | – | – | Cc1ccc(Oc2ccc(CN(Cc3cc(F)cc(F)c3)c3c(Br)cc(CC(=O)O)cc3Br)cc2)c(C)c1
5 | 6.84 | 7.34 | 5.68 | O=C(O)Cc1cc(Br)c(N(Cc2ccc(Oc3ccccc3F)cc2)Cc2cc(F)cc(F)c2)c(Br)c1
